Where two headings read alike, the source gives them in different places. *1 amine or outer side, *2 acyl side, *3 side chain or, on linkers, in order; H or OH if unused. Where a SMILES comes first, the peptide text is derived from it. Bridges are numbered along the chain shown (N, C = ends). [ ]: non-standard residue; d: D form. NMePhe(4-CH2NHiPr) = CN[C@@H](Cc1ccc(CNC(C)C)cc1)C(=O)O; Phe(4-CH2NHiPr) = CC(C)NCc1ccc(C[C@H](N)C(=O)O)cc1; Tyr(3-I) = N[C@@H](Cc1ccc(O)c(I)c1)C(=O)O; X1 = NC(=O)N[C@@H](CS[*:2])C(=O)[*:1]; d2Nal = N[C@H](Cc1ccc2ccccc2c1)C(=O)O
Legend:
Format in all cases: binding
[1] = target: T1, human SSTR1 (Homo sapiens, UniProt P30872); assay: Displacement of 125I-[Leu8,D-Trp22,Tyr25]-SRIF-28 from cloned SSTR1 (receptor autoradiography); details: for binding strength and selectivity for SSTR1, in words: Peptide No. 27 and 2A after iodination
T1 construct: expressed in transfected cells; host or cells: CHO-K1 cells and CCL39 cells
T1 sequence (P30872 whole entry): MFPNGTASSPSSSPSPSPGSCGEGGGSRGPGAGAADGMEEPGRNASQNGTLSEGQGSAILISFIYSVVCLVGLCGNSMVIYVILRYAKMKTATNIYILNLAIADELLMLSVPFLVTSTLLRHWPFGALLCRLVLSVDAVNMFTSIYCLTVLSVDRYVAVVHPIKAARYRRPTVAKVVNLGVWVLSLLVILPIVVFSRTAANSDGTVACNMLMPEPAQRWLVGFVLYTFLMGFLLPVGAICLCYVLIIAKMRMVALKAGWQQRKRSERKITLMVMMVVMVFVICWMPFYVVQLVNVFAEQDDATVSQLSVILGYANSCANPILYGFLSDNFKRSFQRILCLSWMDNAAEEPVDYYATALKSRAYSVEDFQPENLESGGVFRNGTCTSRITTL
Experimental: (§1) Generally, recombinant cells expressing the receptor are washed and homogenized to prepare a crude protein homogenate that is frozen, embedded and then cut in 10–20 μm thin sections, as known in this art. Candidate substances, such as potential SRIF agonists and antagonists, are incubated with the tissue sections, and the interaction between the candidate substance and the receptor polypeptide is monitored.
(§2) Receptor binding assays are performed on cloned SRIF receptors as generally set forth in Reubi, J. C. et al., J. Clin. Endocrinol. […] Med. 2000, 27, 273–282.
(§3) In vitro Bioassay: The various somatostatin analogs are tested in vitro for their ability to bind to isolated cloned receptors expressed on CHO-K1 cells and CCL39 cells. CHO-K1 cells are grown in Ham's F-12 medium, and CCL39 cells are grown in Dulbecco's modified Eagle's medium/Ham's F-12(1:1) mix, supplemented with 10% fetal bovine serum, 100 U/ml penicillin and 100 μg/ml streptomycin, in humidified air containing 5% CO2 at 37° C.
(§4) Cells are washed and prepared to produce homogenates as described in detail in Reubi, J. C. et al, Eur. J. Nucl. Med. 2000, 27, 273–282.
(§5) Receptor autoradiography is performed on 20 μm thick cryostat sections of the membrane pellets, mounted on microscope slides, and then stored at −20° C. […] Increasing concentrations of the unlabeled peptide are used ranging from 0.1–1000 nM. […] IC50 values are calculated after quantification of the data using a computer-assisted image processing system as known in this art.

[2] = target: T2, human SSTR2 (Homo sapiens, UniProt P30874); assay: Displacement of 125I-[Leu8,D-Trp22,Tyr25]-SRIF-28 from cloned SSTR2 (receptor autoradiography)
T2 construct: expressed in transfected cells; host or cells: CHO-K1 cells and CCL39 cells
T2 sequence (P30874 whole entry): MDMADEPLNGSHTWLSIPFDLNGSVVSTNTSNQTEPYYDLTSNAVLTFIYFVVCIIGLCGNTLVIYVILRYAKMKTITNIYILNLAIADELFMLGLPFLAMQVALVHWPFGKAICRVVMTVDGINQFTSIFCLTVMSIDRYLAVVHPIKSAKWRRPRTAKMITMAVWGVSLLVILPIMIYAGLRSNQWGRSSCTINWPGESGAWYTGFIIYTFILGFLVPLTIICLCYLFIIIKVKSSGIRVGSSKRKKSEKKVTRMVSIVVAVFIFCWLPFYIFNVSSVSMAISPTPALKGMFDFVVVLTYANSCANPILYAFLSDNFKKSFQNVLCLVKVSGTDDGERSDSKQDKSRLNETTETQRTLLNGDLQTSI
Experimental: as §1, §2, §3, §4
(§6) Receptor autoradiography is performed on 20 μm thick cryostat sections of the membrane pellets, mounted on microscope slides, and then stored at −20° C. […] […] […] IC50 values are calculated after quantification of the data using a computer-assisted image processing system as known in this art.

[3] = target: T3, human SSTR3 (Homo sapiens, UniProt P32745); assay: Displacement of 125I-[Leu8,D-Trp22,Tyr25]-SRIF-28 from cloned SSTR3 (receptor autoradiography); details: for effect on binding of the SRIF-28 radioligand to human SSTR3: at concentrations of 100 nM
T3 construct: expressed in transfected cells; host or cells: CHO-K1 cells and CCL39 cells
T3 sequence (P32745 whole entry): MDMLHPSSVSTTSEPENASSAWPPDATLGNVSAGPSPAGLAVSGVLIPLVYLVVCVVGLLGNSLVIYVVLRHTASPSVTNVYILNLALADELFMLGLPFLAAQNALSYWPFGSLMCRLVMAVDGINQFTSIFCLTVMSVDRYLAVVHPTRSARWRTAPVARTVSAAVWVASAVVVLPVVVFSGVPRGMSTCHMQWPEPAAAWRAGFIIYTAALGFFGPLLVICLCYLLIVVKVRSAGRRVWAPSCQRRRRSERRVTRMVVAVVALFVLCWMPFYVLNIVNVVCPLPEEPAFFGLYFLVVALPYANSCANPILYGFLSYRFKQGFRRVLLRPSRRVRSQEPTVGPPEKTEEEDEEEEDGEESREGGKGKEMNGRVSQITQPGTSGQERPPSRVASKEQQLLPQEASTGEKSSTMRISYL
Experimental: as §1, §2, §3, §4, §5

[4] = target: T4, human SSTR4 (Homo sapiens, UniProt P31391); assay: Displacement of 125I-[Leu8,D-Trp22,Tyr25]-SRIF-28 from cloned SSTR4 (receptor autoradiography)
T4 construct: expressed in transfected cells; host or cells: CHO-K1 cells and CCL39 cells
T4 sequence (P31391 whole entry): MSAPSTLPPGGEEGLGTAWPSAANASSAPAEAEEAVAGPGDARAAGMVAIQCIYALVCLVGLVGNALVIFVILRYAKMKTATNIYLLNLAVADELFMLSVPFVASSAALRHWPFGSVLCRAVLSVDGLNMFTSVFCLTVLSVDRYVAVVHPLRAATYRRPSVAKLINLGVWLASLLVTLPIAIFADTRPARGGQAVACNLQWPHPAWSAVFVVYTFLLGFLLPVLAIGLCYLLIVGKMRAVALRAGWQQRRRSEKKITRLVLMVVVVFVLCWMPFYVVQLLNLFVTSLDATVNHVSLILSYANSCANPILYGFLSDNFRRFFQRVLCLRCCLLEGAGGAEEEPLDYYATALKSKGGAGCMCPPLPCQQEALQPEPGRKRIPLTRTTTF
Experimental: as §1, §2, §3, §4, §5

[5] = target: T5, human SSTR5 (Homo sapiens, UniProt P35346); assay: Displacement of 125I-[Leu8,D-Trp22,Tyr25]-SRIF-28 from cloned SSTR5 (receptor autoradiography)
T5 construct: expressed in transfected cells; host or cells: CHO-K1 cells and CCL39 cells
T5 sequence (P35346 whole entry): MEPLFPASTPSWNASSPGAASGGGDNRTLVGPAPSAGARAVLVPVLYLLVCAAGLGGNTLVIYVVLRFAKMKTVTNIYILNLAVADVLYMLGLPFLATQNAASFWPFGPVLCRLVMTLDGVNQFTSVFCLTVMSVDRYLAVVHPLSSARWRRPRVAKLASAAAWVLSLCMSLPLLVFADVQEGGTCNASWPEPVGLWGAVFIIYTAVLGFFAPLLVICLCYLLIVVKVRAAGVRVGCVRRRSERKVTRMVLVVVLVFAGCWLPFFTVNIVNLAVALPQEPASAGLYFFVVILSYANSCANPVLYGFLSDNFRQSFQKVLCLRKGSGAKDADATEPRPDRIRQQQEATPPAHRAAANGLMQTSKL
Experimental: as §1, §2, §3, §4, §6

[6] = inhibition of radioligand binding of 125I-[Leu8,D-Trp22,Tyr24]SRIF-28, cloned receptor, table, read-out: IC50 (nM) mSSTR4
[7] = displacement of iodinated SRIF-28 radioligand, read-out: IC50 / binding affinity at human SSTR1
[8] = inhibition of radioligand binding of 125I-[Leu8,D-Trp22,Tyr24]SRIF-28, cloned receptor, table, read-out: IC50 (nM) mSSTR1
[9] = inhibition of radioligand binding of 125I-[Leu8,D-Trp22,Tyr24]SRIF-28, cloned receptor, table, read-out: IC50 (nM) mSSTR2
[10] = read-out: concentration below which no binding to SSTR2
[11] = inhibition of radioligand binding of 125I-[Leu8,D-Trp22,Tyr24]SRIF-28, cloned receptor, table, read-out: IC50 (nM) mSSTR5
[12] = read-out: concentration below which no binding to SSTR5

Structure (SMILES) | binding strength and selectivity for SSTR1, in words [1] | IC50 ([2]; read-out: IC50 (nM) mSSTR2) | effect on binding of the SRIF-28 radioligand to human SSTR3 [3] | IC50 [4, 6] | IC50 [1, 7] | IC50 [1, 8] | IC50 [2, 9] | IC50 [2, 10] | IC50 ([3]; read-out: IC50 (nM) mSSTR3) | IC50 ([4]; read-out: IC50 (nM) mSSTR4) | IC50 [5, 11] | IC50 [5, 12] | IC50 ([5]; read-out: IC50 (nM) mSSTR5) | also measured
CC(C)NCc1ccc(C[C@@H]2NC(=O)[C@@H](Cc3c[nH]c4ccccc34)NC(=O)[C@H](Cc3ccccc3)NC(=O)[C@H](Cc3ccccc3)NC(=O)[C@H](CCCCN)NC(=O)[C@@H](N)CSSC[C@@H](C(=O)O)NC(=O)[C@H](CO)NC(=O)[C@H]([C@@H](C)O)NC(=O)[C@H](Cc3ccc(O)cc3)NC(=O)[C@H]([C@@H](C)O)NC2=O)cc1 [2A, (cyclo)H-Cys-Lys-Phe-Phe-D-Trp-IAmp-Thr-Tyr-Thr-Ser-Cys-OH] (H-CKFF[dW][Phe(4-CH2NHiPr)]TYTSC-OH; disulfide 1-11) | continues to bind strongly | > 10000 nM | even less effect | > 10000 nM | – | – | – | – | – | – | – | – | – | –
CC(C)NCc1ccc(C[C@H]2C(=O)N[C@@H]([C@@H](C)O)C(=O)N[C@@H](Cc3ccc(O)cc3)C(=O)N[C@@H]([C@@H](C)O)C(=O)N[C@@H](CO)C(=O)N[C@H](C(=O)O)CSSC[C@H](N)C(=O)N[C@@H](CCCCN)C(=O)N[C@@H](Cc3ccccc3)C(=O)N[C@@H](Cc3ccccc3)C(=O)N[C@H](Cc3c[nH]c4ccccc34)C(=O)N2C)cc1 [Peptide No. 2, (cyclo)H-Cys-Lys-Phe-Phe-D-Trp-N^αMeIAmp-Thr-Tyr-Thr-Ser-Cys-OH] (H-CKFF[dW][NMePhe(4-CH2NHiPr)]TYTSC-OH; disulfide 1-11) | – | – | minimal effects | – | ~6.1 nM | 7.2 nM | > 10000 nM | > 10000 nM | > 1000 nM | > 1000 nM | > 10000 nM | > 10000 nM | – | effect on binding of the SRIF-28 radioligand to human SSTR2 ([2]; at concentrations of 100 nM): minimal effects; binding to SSTR3, in words ([3]; Peptide No. 27 iodinated): does not bind strongly; binding to SSTR4, in words ([4]; Peptide No. 27 iodinated): does not bind strongly; effect on binding of the SRIF-28 radioligand to human SSTR4 ([4]; at concentrations of 100 nM): minimal effects; effect on binding of the SRIF-28 radioligand to human SSTR5 ([5]; at concentrations of 100 nM): minimal effects
CC(C)NCc1ccc(C[C@@H]2NC(=O)[C@@H](Cc3c[nH]c4ccccc34)NC(=O)[C@H](Cc3ccccc3)NC(=O)[C@H](Cc3ccccc3)NC(=O)[C@H](CCCCN)NC(=O)[C@@H](N)CSSC[C@@H](C(=O)O)NC(=O)[C@H](CO)NC(=O)[C@H]([C@@H](C)O)NC(=O)[C@H](Cc3ccc(O)c(I)c3)NC(=O)[C@H]([C@@H](C)O)NC2=O)cc1 [Peptide No. 2B] (H-CKFF[dW][Phe(4-CH2NHiPr)]T[Tyr(3-I)]TSC-OH; disulfide 1-11) | – | > 10000 nM | – | – | – | – | – | – | – | – | – | – | – | –
CC(C)NCc1ccc(C[C@H]2C(=O)N[C@@H]([C@@H](C)O)C(=O)N[C@@H](Cc3ccc(O)cc3)C(=O)N[C@@H]([C@@H](C)O)C(=O)N[C@@H](CO)C(=O)N[C@H](C(=O)O)CSSC[C@H](N)C(=O)N[C@@H](CCCCN)C(=O)N[C@@H](Cc3ccccc3)C(=O)N[C@@H](Cc3ccccc3)C(=O)N[C@H](Cc3ccc4ccccc4c3)C(=O)N2C)cc1 [Peptide No. 9A, (cyclo)H-Cys-Lys-Phe-Phe-D-2Nal-N^αMeIAmp-Thr-Tyr-Thr-Ser-Cys-OH] (H-CKFF[d2Nal][NMePhe(4-CH2NHiPr)]TYTSC-OH; disulfide 1-11) | – | – | – | > 1000 nM | ~21 nM | 24.5 nM | > 10000 nM | > 10000 nM | – | – | > 10000 nM | > 10000 nM | – | IC50 ([3]; inhibition of radioligand binding of 125I-[Leu8,D-Trp22,Tyr24]SRIF-28, cloned receptor, table, read-out: IC50 (nM) mSSTR3): > 1000 nM; IC50 ([3]; read-out: concentration below which no binding to SSTR3): > 1000 nM; IC50 ([4]; read-out: concentration below which no binding to SSTR4): > 10000 nM
CC(C)NCc1ccc(C[C@H]2C(=O)N[C@@H]([C@@H](C)O)C(=O)N[C@@H](Cc3ccc(O)cc3)C(=O)N[C@@H]([C@@H](C)O)C(=O)N[C@@H](CO)C(=O)N[C@H](C(=O)O)CSSC[C@H](NC(N)=O)C(=O)N[C@@H](CCCCN)C(=O)N[C@@H](Cc3ccccc3)C(=O)N[C@@H](Cc3ccccc3)C(=O)N[C@H](Cc3c[nH]c4ccccc34)C(=O)N2C)cc1 [Peptide No. 12, (cyclo)CbmCys-Lys-Phe-Phe-D-Trp-N^αMeIAmp-Thr-Tyr-Thr-Ser-Cys-OH] (KFF[dW][NMePhe(4-CH2NHiPr)]TYTSC-OH; linker N-10 via X1) | good selectivity with good binding strength | > 10000 nM | – | – | – | 43 nM | – | – | > 1000 nM | > 1000 nM | – | – | > 10000 nM | –
CC(C)NCc1ccc(C[C@@H]2NC(=O)[C@@H](Cc3c[nH]c4ccccc34)NC(=O)[C@H](Cc3ccccc3)NC(=O)[C@H](Cc3ccccc3)NC(=O)[C@H](CCCCN)NC(=O)[C@@H](NC(N)=O)CSSC[C@@H](C(=O)O)NC(=O)[C@H](CO)NC(=O)[C@H]([C@@H](C)O)NC(=O)[C@H](Cc3ccc(O)cc3)NC(=O)[C@H]([C@@H](C)O)NC2=O)cc1 [Peptide No. 12A, (cyclo)CbmCys-Lys-Phe-Phe-D-Trp-IAmp-Thr-Tyr-Thr-Ser-Cys-OH] (KFF[dW][Phe(4-CH2NHiPr)]TYTSC-OH; linker N-10 via X1) | – | > 10000 nM | – | – | 8.1 nM | – | – | – | > 1000 nM | > 1000 nM | – | – | > 1000 nM | –

— patent US7019109B2, “SSTR1-selective analogs” (The Salk Institute for Bilogical Studies, priority 2001, dated 2006)
